Tests used:
KCC2 = test: FluxOR fluorescence based thallium (Tl+) influx assay on KCC2-expressing HEK293 cells; assay type: cell-based; settings: for effect on KCC2 activity, normalized to the maximal effect obtained with compound 1: 30 μM, HEK KCC2 cells, 15 minutes incubation
Protocol: Wild-type or KCC2-expressing Human Embryonic Kidney (HEK) 293 cells (provided by Prof. Eric Delpire Department of Anesthesiology, Vanderbilt University Medical Center, Nashville, Tenn.) were grown up to 80-90% confluence in DMEM/Ham's F-12 (1:1) (Life technologies, Carlsbad, Calif., USA) supplemented with 10% FBS (Life technologies), 50 units/mL penicillin, and 50 µg/mL streptomycin (Life technologies). KCC2-expressing clones were under puromycin selection (20 μg/ml, Life technologies).
The FluxOR™ potassium ion channel assay (Life Technologies Carlsbad, Calif., USA) was performed as outlined in the product information sheet and an earlier published study (Delpire et al., 2009, Proc. Natl. Acad. Sci. USA, 106, 5383-88) to assess KCC2 activity, and adapted to semi-automated high throughput screening. The experiment was performed in the presence of ouabain 200 μM and bumetanide 10 μM in all buffers to block the Na^+/K^+ pump and NKCC1 cotransporters, respectively. Briefly, cells in suspension were incubated in the loading buffer containing the dye at room temperature for 90 min (1/2000 dilution of FluxOR reagent) at the density of 100.000 cells/75 μl, then centrifugated and resuspended in Assay buffer at the same cell density. A number of 100.000 cells (75 μl) were manually handled in each well to the 96-wells black-walled, μclear-bottom plates (Greiner Bio-One, Monroe, N.C., USA) and 5 μl of chemical compounds 1-8 at different concentrations in PBS 1% DMSO (5, 30 and 50 μM) were added to the plates using the Biomek® NX Laboratory automation workstation (Beckman Coulter, Villepinte, France). After 15 minutes incubation, baseline fluorescent signal was measured with the Polarstar omega microplate reader (490 nm excitation and 520 nm emission, BMG Labtech). Then 20 μL per well of 5× thallium stimulus buffer (final concentrations: Tl^+: 2 mM, K^+: 10 mM) was injected and fluorescent signal was read 30 minutes later.
For each plate, 2 columns were dedicated to controls (cell density range from 0.25 to 1.10^5 cells; loading buffer as blank; untreated or treated with NEM (33 μM, for 15 min) wild-type and KCC2-expressing HEK293 cells).
Baseline fluorescent value was subtracted from the fluorescent value measured 30 min after stimulus buffer injection for each well, and this difference was normalized to the number of cells. […] Values converted to percentages such that the maximum of ratio is 100%.

HEK cells = test: PrestoBlue cell viability assay (cytotoxicity); assay type: cell-based, Human; settings: 30 μM
Protocol: Cytotoxicity were evaluated with fluorescent viability assay on HEK cells lines incubated 1 h with several concentrations of drugs. TC50: Toxic Concentration for 50% of the population.
After stimulus buffer induced signal acquisition, PrestoBlue® Cell Viability Reagent (Life technologies), a cell permeable resazurin-based solution was used according to manufacturer procedure as a cell viability indicator (Excitation/Emission (nm): 535-560/590-615).

| SMILES | effect on KCC2 activity, normalized to the maximal effect obtained with compound 1 (KCC2) [%] | specific activation of KCC2 across a dose range (KCC2; HEK KCC2 compared to WT HEK cells, non-cytotoxic dose range) | cytotoxicity (HEK cells) |
| --- | --- | --- | --- |
| OCCN1CCN(CCCN2c3ccccc3Sc3ccc(Cl)cc32)CC1 [compound 1, 2-[4-[3-(2-chloro-10H-phenothiazin-10-yl)propyl]piperazin-1-yl]ethanol] | 100 | activate specifically KCC2 in a dose dependant manner | – |
| CN1CCN(CCCN2c3ccccc3Sc3ccccc32)CC1 [compound 7, 10-[3-(4-methylpiperazin-1-yl)propyl]-10H-phenothiazine] | 55 | – | – |
| CCSc1ccc2c(c1)N(CCCN1CCN(C)CC1)c1ccccc1S2 [compound 8, 2-(ethylthio)-10-[3-(4-methylpiperazin-1-yl)propyl]-10H-phenothiazine] | – | – | cytotoxic |

Reference: patent US9814727B2, “Piperazine phenothiazine derivatives for treating spasticity” (UNIVERSITE D'AIX-MARSEILLE, priority 2014, dated 2017)
